Tested on: AβO cytotoxicity
Assay: Rapid MTT formazan exocytosis (MTT-FE) assay
Assay type: cell-based
Conditions: AβO:Compound 1:0 to 1:4, 1 hour, TS-/TI-MTT
Protocol: In the rapid MTT formazan exocytosis (MTT-FE) assay, AβO was combined with LRL 03, LRL 15, Compound A or Congo Red (2.5 μM solution) at a ratio of 1:0, 1:1, 1:2 or 1:4 (AβO:Compound) and incubated for 1 hour, followed by measurement of the degree of formazan exocytosis. […] In particular, cellular MTT formazan was fractionated into the Triton soluble (TS) and insoluble (TI) MTT and quantified and shown in FIG. 7B.

| Compound | neutralization of AβO cytotoxicity |
| --- | --- |
| Nc1c(/N=N/c2ccc(-c3ccc(/N=N/c4cc(S(=O)(=O)O)c5ccccc5c4N)cc3)cc2)cc(S(=O)(=O)O)c2ccccc12 [Congo Red] | able to neutralize AβO cytotoxicity |

Tested on: MC65 cells
Assay: MC65 cell protection (cell viability) assay;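 further: intraneuronal AβO toxicity triggered by withdrawing tetracycline, which suppresses the C99 transgene, MTT formazan viability read-out, with tetracycline-maintained cultures taken as 100%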
Conditions: not given

| Compound | protection of MC65 cells from death |
| --- | --- |
| NC(=O)[C@H](Cc1ccc(O)c(O)c1)NC(=O)c1ccc2c(c1)nc(Nc1cccc(Br)c1)n2CCOc1ccccc1 [LRL 13, (S)—N-(1-amino-3-(3,4-dihydroxyphenyl)-1-oxopropan-2-yl)-2-(3-bromophenylamino)-1-(2-phenoxyethyl)-1H-benzo[d]imidazole-5-carboxamide, reference compound] | protect MC65 cells from death |
| NC(=O)c1ccc2c(c1)nc(Nc1ccc(I)cc1)n2CCOc1ccccc1 [LRL 19, 2-(4-iodophenylamino)-1-(2-phenoxyethyl)-1H-benzo[d]imidazole-5-carboxamide, reference compound] | protect MC65 cells from death |
| Cc1c(C(N)=O)c(=O)oc2cc3c(cc12)nc(Nc1ccccc1Br)n3CCOc1ccccc1 [Compound C, 2-(2-Bromo-phenylamino)-8-methyl-6-oxo-3-(2-phenoxy-ethyl)-3,6-dihydro-chromeno[6,7-d]imidazole-7-carboxylic acid amide] | inactive |

Same assay, conditions: MC65

| Compound | EC50 |
| --- | --- |
| Cc1c(C(N)=O)c(=O)oc2cc3c(cc12)nc(Nc1ccccc1Br)n3CCOc1ccccc1 [D.3] | > 10000 nM |
| COc1ccc(CCn2c(Nc3cccc(I)c3)nc3cc4c(C)c(C(N)=O)c(=O)oc4cc32)cc1 [D.7] | < 1000 nM |
| COc1ccc(Nc2nc3cc4c(C)c(C(N)=O)c(=O)oc4cc3n2Cc2cccc(F)c2)cc1 [D.21] | < 1000 nM |
| COc1ccc(Nc2nc3cc4c(C)c(C(N)=O)c(=O)oc4cc3n2Cc2ccc(I)cc2)cc1 [D.25] | < 1000 nM |
| Cc1c(C(N)=O)c(=O)oc2cc3c(cc12)nc(Nc1ccc(C#N)cc1)n3Cc1ccc(Br)cc1 [D.34] | < 1000 nM |
| Cc1c(C(N)=O)c(=O)oc2cc3c(cc12)nc(Nc1ccc(OC(F)(F)F)cc1)n3Cc1ccc(Cl)cc1 [D.31] | < 1000 nM |
| Cc1c(C(N)=O)c(=O)oc2cc3c(cc12)nc(Nc1cccc(I)c1)n3CCc1ccc(Br)cc1 [D.8] | < 1000 nM |
| COCCn1c(Nc2cccc(I)c2)nc2cc3c(C)c(C(N)=O)c(=O)oc3cc21 [D.6] | > 10000 nM |
| COc1ccc(Nc2nc3cc4c(C)c(C(N)=O)c(=O)oc4cc3n2Cc2cccc(I)c2)cc1 [D.16] | < 1000 nM |
| COc1ccc(Nc2nc3cc4c(C)c(C(N)=O)c(=O)oc4cc3n2Cc2cccc(Br)c2)cc1 [D.20] | < 1000 nM |
| Cc1c(C(N)=O)c(=O)oc2cc3c(cc12)nc(Nc1ccc(OC(F)(F)F)cc1)n3Cc1cccc(Cl)c1 [D.28] | < 1000 nM |
| Cc1c(C(N)=O)c(=O)oc2cc3c(cc12)nc(Nc1cccc(I)c1)n3Cc1cccc(I)c1 [D.15] | < 1000 nM |
| COc1ccc(Nc2nc3cc4c(C)c(C(N)=O)c(=O)oc4cc3n2CCc2cccc(Cl)c2)cc1 [D.27] | < 1000 nM |
| COc1ccc(Nc2nc3cc4c(C)c(C(N)=O)c(=O)oc4cc3n2Cc2ccc(Br)cc2)cc1 [D.24] | < 1000 nM |
| COc1ccc(Nc2nc3cc4c(C)c(C(N)=O)c(=O)oc4cc3n2Cc2cccc(I)c2)c(OC)c1 [D.19] | < 1000 nM |
| Cc1c(C(N)=O)c(=O)oc2cc3c(cc12)nc(Nc1ccc(C#N)cc1)n3Cc1ccc(I)cc1 [D.35] | < 1000 nM |
| Cc1c(C(N)=O)c(=O)oc2cc3c(cc12)nc(Nc1cccc(I)c1)n3CC1CC1 [D.13] | < 1000 nM |
| Cc1c(C(N)=O)c(=O)oc2cc3c(cc12)nc(Nc1cccc(I)c1)n3CCOc1ccccc1 [D.9] | < 1000 nM |

| Compound | EC50 |
| --- | --- |
| Cc1c(C(N)=O)c(=O)oc2cc3c(cc12)nc(Nc1ccc(I)cc1)n3CCOc1ccccc1 [D.2] | < 1000 nM |
| COc1ccc(Nc2nc3cc4c(C)c(C(N)=O)c(=O)oc4cc3n2-c2cccc(Br)c2)cc1 [D.33] | > 10000 nM |
| COc1ccc(Nc2nc3cc4c(C)c(C(N)=O)c(=O)oc4cc3n2Cc2ccc(Cl)cc2)cc1 [D.23] | < 1000 nM |
| COc1ccc(Nc2nc3cc4c(C)c(C(N)=O)c(=O)oc4cc3n2CCOc2ccccc2)cc1 [D.10] | < 1000 nM |
| Cc1c(C(N)=O)c(=O)oc2cc3c(cc12)nc(Nc1ccc(OC(F)(F)F)cc1)n3Cc1cccc(Br)c1 [D.29] | < 1000 nM |
| Cc1c(C(N)=O)c(=O)oc2cc3c(cc12)nc(Nc1ccc(OC(F)(F)F)cc1)n3Cc1cccc(I)c1 [D.30] | < 1000 nM |
| Cc1c(C(N)=O)c(=O)oc2cc3c(cc12)nc(Nc1cccc(Br)c1)n3CCOc1ccccc1 [D.1] | < 1000 nM |
| COc1cccc(Nc2nc3cc4c(C)c(C(N)=O)c(=O)oc4cc3n2Cc2cccc(I)c2)c1 [D.17] | < 1000 nM |
| COc1ccc(Nc2nc3cc4c(C)c(C(N)=O)c(=O)oc4cc3n2CCc2ccc(Br)cc2)cc1 [D.26] | < 1000 nM |
| C#CCn1c(Nc2cccc(I)c2)nc2cc3c(C)c(C(N)=O)c(=O)oc3cc21 [D.4] | 1000 to 10000 nM |
| CSc1cccc(Nc2nc3cc4c(C)c(C(N)=O)c(=O)oc4cc3n2Cc2cccc(I)c2)c1 [D.18] | < 1000 nM |
| CCCn1c(Nc2cccc(I)c2)nc2cc3c(C)c(C(N)=O)c(=O)oc3cc21 [D.12] | < 1000 nM |
| Cc1c(C(N)=O)c(=O)oc2cc3c(cc12)nc(Nc1cccc(I)c1)n3CC(F)F [D.14] | 1000 to 10000 nM |
| Cc1c(C(N)=O)c(=O)oc2cc3c(cc12)nc(Nc1cccc(I)c1)n3C [D.11] | 1000 to 10000 nM |
| Cc1c(C(N)=O)c(=O)oc2cc3c(cc12)nc(Nc1cccc(I)c1)n3CCO [D.5] | > 10000 nM |
| COc1ccc(Nc2nc3cc4c(C)c(C(N)=O)c(=O)oc4cc3n2Cc2cccc(Cl)c2)cc1 [D.22] | < 1000 nM |
| Cc1c(C(N)=O)c(=O)oc2cc3c(cc12)nc(Nc1ccc(OC(F)(F)F)cc1)n3Cc1ccc(Br)cc1 [D.32] | < 1000 nM |

Molecular target: T1, AβO (Homo sapiens, UniProt P05067)
T1 construct: prepared by mixing a 1:10 ratio of biotinylated and unbiotinylated Aβ1-42 peptide
T1 sequence (P05067 672-713 limits assumed): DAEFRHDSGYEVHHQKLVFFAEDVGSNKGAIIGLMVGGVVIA
Assay: Electron microscopy (EM) of AβO size
Assay type: biochemical
Conditions: 24 hour incubation at 25° C.
Protocol: To address the possible alternative explanation that the depolymerization effect observed for Compound A in the AFM experiment is due to Compound A altered binding of AβO to the AFM mica, the effect of Compound A and Compound B and Congo Red on AβO size was further analyzed by electron microscopy (EM) (see FIG. 5A and FIG. 5B). […] The representative electron micrographs presented in FIG. 5A show the size of the AβO aggregates after incubation with either Compound A, Compound B or Congo Red. FIG. 5B contains a histogram, which illustrates the size distribution of AβO without treatment or with treatment with Compound A, Compound B or Congo Red. It is apparent from EM images in FIG. 5A and in the histograms shown in FIG. 5B that after 24 hour incubation at 25° C. and in the absence of treatment with Compound A or Congo Red, AβO grew in size.

| Compound | effect on number and size of AβO |
| --- | --- |
| Nc1c(/N=N/c2ccc(-c3ccc(/N=N/c4cc(S(=O)(=O)O)c5ccccc5c4N)cc3)cc2)cc(S(=O)(=O)O)c2ccccc12 [Congo Red] | reduction in the number and size of AβO |

Tested on: binding of AβO to synapses of cultured mouse hippocampal neurons
Assay: Synaptic binding assay
Assay type: cell-based
Conditions: 100 nM AβO: 1 μM compound, neurons 21 days in vitro
Protocol: The strong binding of AβO to synapses induces aberration in synapse composition, shape, and density, and was proposed as the molecular basis for the loss of connectivity in AD (see, Lacor, et al., J. Neurosci. (2007) 27:796-807). A synaptic binding assay was performed as described by Lacor et al. (2007), which is incorporated herein by reference, with minor modifications to test the effectiveness of a compound of Formula I (e.g., Compound A) to reduce or to prevent the binding of AβO to synapses. AβO prepared from the N-terminal biotinylated Aβ1-42 peptide was incubated either with 10 equivalents compounds (i.e., 100 nM AβO: 1 μM Compound A), or with DMSO (i.e., the solvent for the compounds used only as a negative control) for five minutes, then added to cultured mouse hippocampal neurons that had been cultured 21 days in vitro. After 5 minute incubation, the neurons were washed, fixed, and stained with streptavidin-Alexa594 for bound AβO. […] The density of puncta per unit dendritic area was quantified using the Image J program and the resulting bar graph is presented in the far right panel.

| Compound | fluorescent puncta (AβO bound to synapses) |
| --- | --- |
| Nc1c(/N=N/c2ccc(-c3ccc(/N=N/c4cc(S(=O)(=O)O)c5ccccc5c4N)cc3)cc2)cc(S(=O)(=O)O)c2ccccc12 [Congo Red] | substantially reduced number of puncta |

Tested on: SDS-stable AβO in MC65 cells
Assay: SDS-PAGE and Western blot (6E10) of MC65 cell homogenates
Assay type: cell-based
Conditions: 1 μM, 24 hour cultures, 6E10 Western blot
Source text: See, Maezawa et al. J Neurochem (2006) 98:57-67, which is incorporated herein by reference.

| Compound | levels of SDS-stable AβO |
| --- | --- |
| NC(=O)[C@H](Cc1ccc(O)c(O)c1)NC(=O)c1ccc2c(c1)nc(Nc1cccc(Br)c1)n2CCOc1ccccc1 [LRL 13, (S)—N-(1-amino-3-(3,4-dihydroxyphenyl)-1-oxopropan-2-yl)-2-(3-bromophenylamino)-1-(2-phenoxyethyl)-1H-benzo[d]imidazole-5-carboxamide, reference compound] | decreased the levels of SDS-stable AβO |
| NC(=O)c1ccc2c(c1)nc(Nc1ccc(I)cc1)n2CCOc1ccccc1 [LRL 19, 2-(4-iodophenylamino)-1-(2-phenoxyethyl)-1H-benzo[d]imidazole-5-carboxamide, reference compound] | decreased the levels of SDS-stable AβO |

From US8168800B2, “Aβ-binding small molecules” (The Regents of the University of California, priority 2007, dated 2012)
